Experimental findings from patent US20260001928A1 (CORTERIA PHARMACEUTICALS, priority 2022, published 2026) are described below.

*1 amine or outer side, *2 acyl side, *3 side chain or, on linkers, in order; H or OH if unused. Where a SMILES comes first, the peptide text is derived from it. Side-chain parts run from the residue outwards. The star is where a group is joined. C18 diacid = O=C(O)CCCCCCCCCCCCCCCCC(=O)*; C16 diacid = O=C(O)CCCCCCCCCCCCCCC(=O)*; γGlu = O=C(O)[C@H](CCC(=O)[*:2])N[*:1]; AEEA = NCCOCCOCC(=O)O

In general, share remaining refers to the share of the starting amount still present when the sample was taken.

A short description of this data set: In vitro subcutaneous tissue supernatant (SCts) stability and metabolite identification, rat. Format: in vitro ADME. The arrangement: remaining at 2 h: dose or concentration left out as unconfirmed. The note with it: male, Sprague Dawley; rat subcutaneous tissue supernatant (SCts), 37° C, 2 h. On the procedure: In vitro metabolic stability in subcutaneous tissue supernatant (SCts) was studied in male Sprague Dawley rats. Test compounds were incubated […] for 2 hours at 37° C.
Software aided in vitro metabolite identification on SCts stability samples was performed using either Metabolite Pilot (Sciex) or Biopharma Finder (Thermo). In addition, metabolite identification using Metabolite Pilot was performed on plasma samples of Comp Y following SC administration to rat at 1 mg/kg.

For the molecule `CC[C@H](C)[C@H](N)C(=O)N[C@H](C(=O)N[C@@H](CC(C)C)C(=O)N[C@@H](CO)C(=O)N[C@@H](CC(C)C)C(=O)N[C@@H](CC(=O)O)C(=O)N[C@H](C(=O)N1CCC[C@H]1C(=O)N[C@H](C(=O)N[C@@H](CCCCN)C(=O)N[C@@H](CC(C)C)C(=O)N[C@@H](CCCCNC(=O)COCCOCCNC(=O)COCCOCCNC(=O)CC[C@H](NC(=O)CCCCCCCCCCCCCCCCC(=O)O)C(=O)O)C(=O)N[C@@H](CCCCN)C(=O)N[C@H](C(=O)N[C@@H](CC(C)C)C(=O)N[C@@H](CC(C)C)C(=O)N[C@@H](CCC(=O)O)C(=O)N[C@@H](CCC(N)=O)C(=O)N[C@@H](CCC(=O)O)C(=O)N[C@@H](CCCCN)C(=O)N[C@@H](CCC(N)=O)C(=O)N[C@@H](CCCCN)C(=O)N[C@@H](CCCCN)C(=O)N[C@@H](CCC(N)=O)C(=O)N[C@@H](CCCNC(=N)N)C(=O)N[C@@H](CCC(=O)O)C(=O)N[C@@H](CCC(N)=O)C(=O)N[C@@H](C)C(=O)N[C@@H](CCC(=O)O)C(=O)N[C@H](C(=O)N[C@@H](CC(N)=O)C(=O)N[C@@H](CCCCN)C(=O)N[C@@H](CCC(N)=O)C(=O)N[C@H](C(=O)N[C@@H](CC(C)C)C(=O)N[C@@H](C)C(=O)N[C@@H](CCC(N)=O)C(=O)N[C@H](C(N)=O)C(C)C)[C@@H](C)CC)[C@@H](C)O)[C@@H](C)CC)[C@@H](C)CC)C(C)C)C(C)C` [149 (CompY)] (H-IVLSLDVPIKLK([AEEA-AEEA-γGlu-C18 diacid])KILLEQEKQKKQREQAETNKQILAQV-NH2), the fraction remaining at 2 h was 4%. The result for `CC[C@H](C)[C@H](N)C(=O)N[C@H](C(=O)N[C@@H](CC(C)C)C(=O)N[C@@H](CO)C(=O)N[C@@H](CC(C)C)C(=O)N[C@@H](CC(=O)O)C(=O)N[C@H](C(=O)N1CCC[C@H]1C(=O)N[C@H](C(=O)N[C@@H](CCCCN)C(=O)N[C@@H](CC(C)C)C(=O)N[C@@H](CCCCNC(=O)CC[C@H](NC(=O)CCCCCCCCCCCCCCC(=O)O)C(=O)O)C(=O)N[C@@H](CCC(N)=O)C(=O)N[C@H](C(=O)N[C@@H](CC(C)C)C(=O)N[C@@H](CC(C)C)C(=O)N[C@@H](CCCCN)C(=O)N[C@@H](CCC(N)=O)C(=O)N[C@@H](CCC(=O)O)C(=O)N[C@@H](CCCNC(=N)N)C(=O)N[C@@H](CCC(N)=O)C(=O)N[C@@H](CCCCN)C(=O)N[C@@H](CCCCN)C(=O)N[C@@H](CCC(N)=O)C(=O)N[C@@H](CCCNC(=N)N)C(=O)N[C@@H](CCC(=O)O)C(=O)N[C@@H](CCC(N)=O)C(=O)N[C@@H](C)C(=O)N[C@@H](CCC(=O)O)C(=O)N[C@@H](CCCCN)C(=O)N[C@@H](CC(N)=O)C(=O)N[C@@H](CCCCN)C(=O)N[C@@H](CCC(N)=O)C(=O)N[C@H](C(=O)N[C@@H](CC(C)C)C(=O)N[C@@H](CCC(=O)O)C(=O)N[C@@H](CCC(N)=O)C(=O)N[C@H](C(N)=O)C(C)C)[C@@H](C)CC)[C@@H](C)CC)[C@@H](C)CC)C(C)C)C(C)C` [151 (CompX)] (H-IVLSLDVPIKLK([γGlu-C16 diacid])QILLKQERQKKQREQAEKNKQILEQV-NH2) reads 0%.
